ChEMBL document CHEMBL2417377, “Hit-to-lead optimization and kinase selectivity of imidazo[1,2-a]quinoxalin-4-amine derived JNK1 inhibitors” (Bioorg Med Chem Lett, 2013)

Assays:
Details in all cases: PC-3
[1] = target: T1, Serine/threonine-protein kinase Nek8 (Homo sapiens) (UniProt Q86SG6); assay: Inhibition of NEK8 in human PC3 cell lysates at 10 uM using desthiobiotin-tagged ATP probe AX9989 followed by trypsinization by LC/MS analysis
T1 sequence (whole entry): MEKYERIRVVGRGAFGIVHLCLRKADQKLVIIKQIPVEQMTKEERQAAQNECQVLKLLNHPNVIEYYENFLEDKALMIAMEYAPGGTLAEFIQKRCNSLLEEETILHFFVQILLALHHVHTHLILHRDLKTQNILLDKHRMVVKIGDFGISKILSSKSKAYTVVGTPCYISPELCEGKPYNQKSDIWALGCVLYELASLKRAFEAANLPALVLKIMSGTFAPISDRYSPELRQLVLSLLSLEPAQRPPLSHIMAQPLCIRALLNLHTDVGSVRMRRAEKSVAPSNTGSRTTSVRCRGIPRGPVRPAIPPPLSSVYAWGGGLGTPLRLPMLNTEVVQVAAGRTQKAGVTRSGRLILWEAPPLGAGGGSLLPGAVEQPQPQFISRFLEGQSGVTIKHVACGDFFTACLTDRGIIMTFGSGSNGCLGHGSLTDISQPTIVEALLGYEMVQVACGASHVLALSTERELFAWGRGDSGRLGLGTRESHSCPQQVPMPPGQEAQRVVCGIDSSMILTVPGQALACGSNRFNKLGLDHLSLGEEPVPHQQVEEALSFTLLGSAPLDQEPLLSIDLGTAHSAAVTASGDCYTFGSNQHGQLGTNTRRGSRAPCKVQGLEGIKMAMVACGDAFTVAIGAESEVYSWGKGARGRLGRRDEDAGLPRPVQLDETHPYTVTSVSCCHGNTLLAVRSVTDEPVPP

[2] = target: T2, Ephrin type-A receptor 1 (Homo sapiens) (UniProt P21709); assay: Inhibition of EphA1 in human PC3 cell lysates at 10 uM using desthiobiotin-tagged ATP probe AX9989 followed by trypsinization by LC/MS analysis
T2 sequence (whole entry): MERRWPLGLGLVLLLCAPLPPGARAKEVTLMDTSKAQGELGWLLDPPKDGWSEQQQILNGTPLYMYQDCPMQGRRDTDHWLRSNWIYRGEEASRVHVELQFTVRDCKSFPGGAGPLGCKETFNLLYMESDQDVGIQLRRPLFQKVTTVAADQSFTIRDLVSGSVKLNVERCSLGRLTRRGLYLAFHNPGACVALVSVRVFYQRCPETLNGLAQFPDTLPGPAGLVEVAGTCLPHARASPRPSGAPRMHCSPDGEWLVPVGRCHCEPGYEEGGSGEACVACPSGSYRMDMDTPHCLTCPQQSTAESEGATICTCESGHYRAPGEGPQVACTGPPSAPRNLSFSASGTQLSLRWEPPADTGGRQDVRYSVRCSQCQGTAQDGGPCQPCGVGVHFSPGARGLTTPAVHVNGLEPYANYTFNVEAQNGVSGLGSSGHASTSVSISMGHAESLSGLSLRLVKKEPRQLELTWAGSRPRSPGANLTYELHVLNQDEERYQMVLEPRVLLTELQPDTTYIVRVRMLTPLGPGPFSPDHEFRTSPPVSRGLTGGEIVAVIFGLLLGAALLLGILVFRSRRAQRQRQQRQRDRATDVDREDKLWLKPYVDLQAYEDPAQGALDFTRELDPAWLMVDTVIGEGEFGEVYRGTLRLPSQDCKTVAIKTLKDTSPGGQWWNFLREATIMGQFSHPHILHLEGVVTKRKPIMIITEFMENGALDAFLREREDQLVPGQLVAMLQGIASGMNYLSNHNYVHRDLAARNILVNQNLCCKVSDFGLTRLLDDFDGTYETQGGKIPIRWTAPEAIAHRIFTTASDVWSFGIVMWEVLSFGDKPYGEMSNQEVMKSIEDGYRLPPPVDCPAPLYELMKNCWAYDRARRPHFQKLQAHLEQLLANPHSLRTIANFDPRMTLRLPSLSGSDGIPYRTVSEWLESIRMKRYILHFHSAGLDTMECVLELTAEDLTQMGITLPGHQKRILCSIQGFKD

[3] = target: Interleukin-1 receptor-associated kinase 1 (Homo sapiens) (UniProt P51617); assay: Inhibition of IRAK1 in human PC3 cell lysates at 10 uM using desthiobiotin-tagged ATP probe AX9989 followed by trypsinization by LC/MS analysis
[4] = target: Ephrin type-A receptor 2 (Homo sapiens) (UniProt P29317); assay: Inhibition of EphA2 in human PC3 cell lysates at 10 uM using desthiobiotin-tagged ATP probe AX9989 followed by trypsinization by LC/MS analysis
[5] = target: Serine/threonine-protein kinase MARK2 (Homo sapiens) (UniProt Q7KZI7); assay: Inhibition of MARK2 in human PC3 cell lysates at 10 uM using desthiobiotin-tagged ATP probe AX9989 followed by trypsinization by LC/MS analysis

Measured: inhibition

Sequence of Interleukin-1 receptor-associated kinase 1 (Homo sapiens) (P51617 whole entry, looked up): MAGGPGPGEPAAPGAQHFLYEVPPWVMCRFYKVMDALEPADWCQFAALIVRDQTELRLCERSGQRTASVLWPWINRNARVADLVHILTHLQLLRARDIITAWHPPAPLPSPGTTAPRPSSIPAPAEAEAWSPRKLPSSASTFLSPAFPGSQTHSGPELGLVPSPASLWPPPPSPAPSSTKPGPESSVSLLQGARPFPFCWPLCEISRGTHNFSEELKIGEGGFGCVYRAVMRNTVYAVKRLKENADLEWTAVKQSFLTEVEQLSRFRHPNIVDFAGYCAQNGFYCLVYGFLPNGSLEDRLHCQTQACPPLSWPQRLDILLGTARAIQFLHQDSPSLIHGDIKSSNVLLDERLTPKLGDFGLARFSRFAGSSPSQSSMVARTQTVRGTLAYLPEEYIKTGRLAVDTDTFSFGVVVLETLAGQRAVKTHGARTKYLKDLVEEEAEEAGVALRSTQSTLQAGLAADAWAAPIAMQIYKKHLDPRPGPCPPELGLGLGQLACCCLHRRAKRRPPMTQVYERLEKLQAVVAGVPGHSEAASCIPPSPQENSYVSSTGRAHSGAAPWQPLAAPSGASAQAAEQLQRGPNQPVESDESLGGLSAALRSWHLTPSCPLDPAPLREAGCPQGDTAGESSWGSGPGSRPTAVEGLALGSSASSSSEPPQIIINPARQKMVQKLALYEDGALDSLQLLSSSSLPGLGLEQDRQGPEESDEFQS
Sequence of Serine/threonine-protein kinase MARK2 (Homo sapiens) (Q7KZI7 whole entry): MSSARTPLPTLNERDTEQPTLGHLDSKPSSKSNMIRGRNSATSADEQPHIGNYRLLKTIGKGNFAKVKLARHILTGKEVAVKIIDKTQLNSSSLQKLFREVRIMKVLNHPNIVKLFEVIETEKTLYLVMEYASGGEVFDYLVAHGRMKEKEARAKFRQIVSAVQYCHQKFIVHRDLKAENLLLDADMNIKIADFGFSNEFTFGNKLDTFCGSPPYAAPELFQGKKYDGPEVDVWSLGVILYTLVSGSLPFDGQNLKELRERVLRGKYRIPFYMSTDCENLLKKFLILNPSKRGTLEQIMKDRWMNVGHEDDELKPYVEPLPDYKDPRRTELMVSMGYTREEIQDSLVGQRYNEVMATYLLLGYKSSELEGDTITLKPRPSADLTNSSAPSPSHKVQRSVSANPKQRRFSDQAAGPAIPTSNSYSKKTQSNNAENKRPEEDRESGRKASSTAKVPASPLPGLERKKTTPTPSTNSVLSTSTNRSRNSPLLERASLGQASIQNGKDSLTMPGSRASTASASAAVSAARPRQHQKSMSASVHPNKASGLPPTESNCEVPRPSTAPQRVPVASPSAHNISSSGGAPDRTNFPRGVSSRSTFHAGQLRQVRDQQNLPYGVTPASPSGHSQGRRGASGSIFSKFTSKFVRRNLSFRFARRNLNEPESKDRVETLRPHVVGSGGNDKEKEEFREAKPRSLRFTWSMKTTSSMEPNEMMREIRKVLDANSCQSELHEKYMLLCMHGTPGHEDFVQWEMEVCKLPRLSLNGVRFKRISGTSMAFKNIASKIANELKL
Sequence of Ephrin type-A receptor 2 (Homo sapiens) (P29317 whole entry): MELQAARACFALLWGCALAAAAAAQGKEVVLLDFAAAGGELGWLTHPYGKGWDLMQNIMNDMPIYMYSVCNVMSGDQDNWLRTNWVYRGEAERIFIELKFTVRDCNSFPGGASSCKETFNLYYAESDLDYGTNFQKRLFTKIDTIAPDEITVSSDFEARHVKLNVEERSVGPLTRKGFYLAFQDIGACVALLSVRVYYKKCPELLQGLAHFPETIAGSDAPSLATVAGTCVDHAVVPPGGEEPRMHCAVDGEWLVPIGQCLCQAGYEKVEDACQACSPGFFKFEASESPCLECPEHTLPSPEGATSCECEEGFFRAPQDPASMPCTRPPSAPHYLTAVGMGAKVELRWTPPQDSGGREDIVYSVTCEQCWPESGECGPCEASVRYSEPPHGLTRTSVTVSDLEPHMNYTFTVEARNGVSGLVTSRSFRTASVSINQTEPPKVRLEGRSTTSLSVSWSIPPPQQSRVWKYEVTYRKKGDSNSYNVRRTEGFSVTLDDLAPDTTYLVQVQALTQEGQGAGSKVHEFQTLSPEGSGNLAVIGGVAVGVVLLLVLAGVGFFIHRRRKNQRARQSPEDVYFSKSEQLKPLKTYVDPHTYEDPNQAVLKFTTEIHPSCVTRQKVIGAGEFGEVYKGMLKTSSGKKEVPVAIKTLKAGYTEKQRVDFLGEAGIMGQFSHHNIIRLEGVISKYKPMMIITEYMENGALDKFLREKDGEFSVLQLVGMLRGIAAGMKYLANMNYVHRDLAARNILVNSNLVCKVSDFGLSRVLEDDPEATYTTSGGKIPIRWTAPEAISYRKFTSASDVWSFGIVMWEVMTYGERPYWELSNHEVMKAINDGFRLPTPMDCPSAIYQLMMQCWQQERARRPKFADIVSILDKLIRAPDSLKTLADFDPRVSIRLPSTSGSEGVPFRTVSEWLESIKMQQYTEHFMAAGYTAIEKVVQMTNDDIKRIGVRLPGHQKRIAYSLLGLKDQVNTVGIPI

O=C(N[C@H](CO)c1ccccc1)c1ccc2nc(N[C@H]3CC[C@H](O)CC3)c3nccn3c2c1
< 35%: [1] | [2] | [3] | [4] | [5]

CC(C)(NC(=O)c1ccc2nc(N[C@H]3CC[C@H](O)CC3)c3nccn3c2c1)c1ccccc1
< 35%: [1] | [2] | [3] | [4] | [5]

O=C(NC1(Cc2ccc(F)cc2)CC1)c1ccc2nc(N[C@H]3CC[C@H](O)CC3)c3nccn3c2c1
< 35%: [1] | [2] | [3] | [4] | [5]

O=C(O)c1ccc2nc(N[C@H]3CC[C@H](O)CC3)c3nccn3c2c1
< 35%: [1] | [2] | [3] | [4] | [5]

CCC[C@@H](NC(=O)c1ccc2nc(N[C@H]3CC[C@H](O)CC3)c3nccn3c2c1)c1ccccc1
< 35%: [1] | [2] | [3] | [4] | [5]

C[C@H](NC(=O)c1ccc2nc(N[C@H]3CC[C@H](O)CC3)c3nccn3c2c1)c1ccccc1
< 35%: [1] | [2] | [3] | [4] | [5]

O=C(NC1(c2ccccc2)CC1)c1ccc2nc(N[C@H]3CC[C@H](O)CC3)c3nccn3c2c1
< 35%: [1] | [2] | [3] | [4] | [5]

O=C(NC1(c2ccccc2)CCC1)c1ccc2nc(N[C@H]3CC[C@H](O)CC3)c3nccn3c2c1
< 35%: [1] | [2] | [3] | [4] | [5]

C[C@@H](NC(=O)c1ccc2nc(N[C@H]3CC[C@H](O)CC3)c3nccn3c2c1)c1ccccc1
< 35%: [1] | [2] | [3] | [4] | [5]

O=C(NC1(c2ccc(F)cc2)CC1)c1ccc2nc(N[C@H]3CC[C@H](O)CC3)c3nccn3c2c1
< 35%: [1] | [2] | [3] | [4] | [5]

NC(=O)c1ccc2nc(N[C@H]3CC[C@H](O)CC3)c3nccn3c2c1
< 35%: [1] | [2] | [3] | [4] | [5]

CC[C@@H](NC(=O)c1ccc2nc(N[C@H]3CC[C@H](O)CC3)c3nccn3c2c1)c1ccccc1
< 35%: [1] | [2] | [3] | [4] | [5]
